According to patent publication US7531622B2, “Synthesis and characterization of novel systems for guidance and vectorization of molecules of therapeutic interest towards target cells” (Centre National de la Recherche Scientifique- CNRS, priority 2002, dated 2009):
Non-standard residues stand in square brackets, D forms with d.

Tested on: HEK293 cells that overexpress integrin β3
Test: Internalization of fluorescein-labeled peptides, confocal microscopy with early endosome immunolabeling
Assay type: cell-based
Settings: 37° C., 15 to 30 minutes
Description: 3) Active internalization of drugs or vectorized products: The same cells, placed in contact at 37° C. or 4° C. for 15 to 30 minutes with peptides previously labeled with fluorescein, are observed by confocal microscopy after immunolabeling of the early endosome vesicles (anti-Early Endosome 1A labeling, visualized in red).
If incubation of the peptides is performed at 4° C., only the extracellular label is observed with the peptide obtained according to the invention, confirming that internalization takes place by way of an active process.

With cyclo(RGDfK) (cyclo(RGD[dF]K)) [cRGD] the “visualization / detection of the peptide on and in cells by fluorescence” value was “not detectable by immunofluorescence” and the “internalization by endocytosis (co-localization with EE1A label)” value (fluorescein-labeled peptide) was “not triggered”.
